Measured values from patent US20250129027A1 (APOGEE PHARMACEUTICALS, INC., priority 2023, published 2025).
In brackets after ≈: the same amount, converted by molar mass. Like-named read-outs stand apart in the source and are kept apart here.

Legend:
[1] = biological target: human recombinant FAAH (Homo sapiens (Human), UniProt O00519); assay: In vitro inhibition of FAAH activity (fluorescent inhibitor screening kit, AMC arachidonoyl amide); assay type: biochemical
In short: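 Fluorogenic kit assay: AMC arachidonoyl amide is cleaved by human recombinant FAAH, read at 340-360/450-465 nm. Percent inhibition versus non-treated control; IC50 values derived from multiple compound concentrations where tested.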

[2] = biological target: human recombinant MAGL (Homo sapiens (Human), UniProt Q99685); assay: In vitro inhibition of MAGL activity (inhibitor screening kit, 4-nitrophenylacetate); assay type: biochemical; details: human recombinant MAGL
In short: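 Percent inhibition derived from absorbance (405-412 nm) of treated wells relative to untreated enzyme control. Human recombinant MAGL with 4-nitrophenylacetate substrate, whose cleavage yields yellow 4-nitrophenol.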

[3] = Aqueous solubility in PBS buffer pH 7.4 (LC-MS); assay type: physicochemical; details: phosphate buffer, kinetic from dmso stock, PBS buffer pH 7.4, room temperature, spiked at 100 μM from DMSO stock
Experimental: Compounds as described herewith were analyzed for their aqueous solubility.
The aqueous solubility of compounds were determined using standard protocols. To illustrate the experimental protocol, the analysis of a representative compound is described. Exemplary compound of Example 158 (MW: 380.4 g/mol) was analyzed in a buffer system at specified pH (phosphate buffer, pH 7.4). This was accomplished by spiking a DMSO stock solution of the test compound at a final concentration of 100 μM in buffer.
Solubility calculation: This is a quantitative assay. The mixture at the end of the assay is filtered by 0.22 micron syringe filter and after 5× dilution in diluent, it was analyzed versus a calibration curve using LC-MS.

[4] = Plasma stability (LC-MS/MS, % parent compound remaining, half-life); assay type: in vitro ADME; details: human plasma; for half-life at 1 μM: 37° C., 0-240 mins, read-out: Human Plasma Stability (t1/2, min)
Experimental: Exemplary compounds described herewith were assayed for plasma stability (various species).
Plasma was removed from deep freezer and allowed to thaw at room temperature (or at 37° C. if needed). Plasma was then centrifuged at 4,000 rpm at RT for 10 min and supernatant was collected and used for the assay: • Drug test tubes: 297 μL plasma/drug test tube, duplicate/drug. • Blank test tubes: 297 μL plasma/Blank test tube, duplicate, too. (Optional, if assay system is stable and consistent) • T0 plasma tube: […] X No. of total sample tubes+50 μL extra for T0 extraction. • (Note: equivalent proportion of solvent mixture as added in drug test tubes will be added before T0 extraction!)
Take out the pre-warmed plasma tubes from the 37° C. incubator. Add 3 μL of 100 μM stock solution (or, equivalent proportion of the solvent mixture to T0 plasma tube for T0 extraction) to each corresponding sample tubes in order, vortex gently (3×) to mix. Finish the sample tubes orderly and quickly, then transfer them to the Thermomixer (program & 37° C. ready), and start the Thermomixer. Record starting time on paper & start the timer for 15 min for the 1st sampling time point.
Now add the equivalent amount of solvent mixture to the T0 plasma tube, mix, and transfer 50 μL plasma to each of the T0 extracting tubes, vortex 20s and placed on ice. Vortex 10s again before centrifuging the samples at 14,000 rpm for 5 min at 4° C.
Repeat the above procedures at each time point (15, 30, 60, 120, 240 min) by transferring 50 μL plasma samples from the testing tubes to the corresponding extracting tubes, in the same order and time scheme as in the addition of the drug to the plasma samples at the beginning of the study.
• Kel=Slope of LN % PCR vs time
Half life (t½)=0.693/Kel (1)

[5] = Pharmacokinetic study in rats, IV and oral gavage, with brain penetration; assay type: in vivo, rat; details: for Kp at 0.5 h: read-out: Brain/Plasma ratio (0.5 h); for Kp at 1 h: read-out: Brain/Plasma ratio (1 h)
Experimental: In pharmacokinetic (PK) studies, animals were administered compounds of the present disclosure and PK parameters were measured. Rats (male, Sprague Dawley) were administered compound of Example 158 at a dose of 1.0 mg/kg intravenously (IV) or 10 mg/kg via oral gavage (PO). Blood samples were taken at t=0.083, 0.25. 0.5, 1, 2, 4, 6, 8 and 24 h post-dose and the plasma was analyzed for concentration of test article (compound of Example 158). Using standard analytical methodology (HPLC analysis), the following parameters were obtained:
Rats were administered compound of Example 172 at a dose of 1.0 mg/kg intravenously (IV) or 10 mg/kg via oral gavage (PO). Using standard analytical methodology (HPLC analysis), the following parameters were obtained: […]

[6] = oral dosing, dose of 250 mg/kg; cited from earlier work
[7] = male, Sprague Dawley, brain, intravenous, 1 mg/kg, rat
[8] = male, Sprague Dawley, brain, rat

Sequence of human recombinant MAGL (Q99685 whole entry): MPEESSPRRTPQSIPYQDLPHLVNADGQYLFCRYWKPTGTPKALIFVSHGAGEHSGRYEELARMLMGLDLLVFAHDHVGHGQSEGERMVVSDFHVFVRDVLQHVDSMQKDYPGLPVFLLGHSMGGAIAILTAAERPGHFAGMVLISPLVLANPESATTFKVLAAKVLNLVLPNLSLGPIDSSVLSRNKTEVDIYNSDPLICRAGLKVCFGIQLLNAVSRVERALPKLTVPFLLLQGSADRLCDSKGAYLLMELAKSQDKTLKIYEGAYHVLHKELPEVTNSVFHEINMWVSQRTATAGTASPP
Sequence of human recombinant FAAH (O00519 whole entry): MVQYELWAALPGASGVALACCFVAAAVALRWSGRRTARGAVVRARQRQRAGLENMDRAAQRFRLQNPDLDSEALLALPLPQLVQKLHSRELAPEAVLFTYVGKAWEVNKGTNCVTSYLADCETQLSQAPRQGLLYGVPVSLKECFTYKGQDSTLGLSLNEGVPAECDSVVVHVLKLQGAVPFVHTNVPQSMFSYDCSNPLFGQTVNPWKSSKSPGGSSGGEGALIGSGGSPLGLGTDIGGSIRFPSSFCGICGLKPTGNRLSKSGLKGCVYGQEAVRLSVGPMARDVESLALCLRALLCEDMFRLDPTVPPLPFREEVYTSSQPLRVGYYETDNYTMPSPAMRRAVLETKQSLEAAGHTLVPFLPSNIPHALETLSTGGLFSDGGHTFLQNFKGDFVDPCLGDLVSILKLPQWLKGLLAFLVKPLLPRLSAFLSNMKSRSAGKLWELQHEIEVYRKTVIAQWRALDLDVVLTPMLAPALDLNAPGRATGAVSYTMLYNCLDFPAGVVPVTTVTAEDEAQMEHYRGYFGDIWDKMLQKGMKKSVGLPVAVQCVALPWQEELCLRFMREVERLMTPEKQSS

COc1ccc(OC(=O)NC2CCCCCC2)cc1-c1cncc(-c2nnco2)c1 [Example 172, 3-(5-(1,3,4-oxadiazol-2-yl)pyridin-3-yl)-4-methoxyphenyl cycloheptylcarbamate]
IC50 ([1]; FAAH, values as listed in Table 5, read-out: IC50): 0.112 µM
IC50 ([1]; human recombinant FAAH, read-out: Inhibition on FAAH activity (IC50)): 0.112 µM
IC50 [2]: > 10 µM
solubility [3]: 16.2 µM (≈ 6.62 µg/mL)
half-life at 1 μM [4]: 361 min
plasma stability and/or aqueous solubility compared to reference compound URB597 ([4]; see Table 5): improved plasma stability, improved aqueous solubility, or improved plasma stability and aqueous solubility
Cmax exposure relative to URB597 ([5]; 10 mg/kg PO vs URB597 at 250 mg/kg): ~10 ×
AUC ([5]; Sprague Dawley, plasma, rat (SD, male), IV 1.0 mg/kg, read-out: AUC0-Y (ng h/mL), IV): 424 ng·h/mL
clearance ([5]; Sprague Dawley, plasma, rat (SD, male), IV 1.0 mg/kg, read-out: CLp): 40 mL/min/kg
Vd ([5]; Sprague Dawley, plasma, rat (SD, male), IV 1.0 mg/kg, read-out: Vdss): 1.58 L/kg
half-life ([5]; Sprague Dawley, plasma, rat (SD, male), IV 1.0 mg/kg, read-out: t1/2 (h), IV (converted)): 0.8 h
improvement in oral exposure maximums compared to URB597 ([5]; dose-adjusted (25× lower dose, 10× Cmax)): ~250 ×
Kp at 0.5 h [5, 7]: 0.15
Kp at 1 h [5, 7]: 0.19
Kp at 0.5 h [5, 8]: 0.15
Kp at 1 h [5, 8]: 0.19
Kp ([5]; male, Sprague Dawley, brain, rat, time not stated, read-out: Brain/Plasma ratio): > 0.15
Tmax ([5]; male, Sprague Dawley, plasma, rat, PO 10.0 mg/kg): 30 min
AUC ([5]; male, Sprague Dawley, plasma, rat, PO 10.0 mg/kg, read-out: AUC0-Y (ng h/mL), PO): 5260 ng·h/mL
Cmax ([5]; male, Sprague Dawley, plasma, rat, PO 10.0 mg/kg, read-out: Cmax): 5.91 µM
Cmax ([5]; male, Sprague Dawley, plasma, rat, PO 10.0 mg/kg, read-out: Cmax (ng/mL)): 2250 ng/mL
half-life ([5]; male, Sprague Dawley, plasma, rat, PO 10.0 mg/kg, read-out: t1/2 (h), PO (converted)): 1.25 h
Co ([5]; rat (SD, male), IV 1.0 mg/kg): 1528 ng/mL
Co [uM] ([5]; rat (SD, male), IV 1.0 mg/kg): [4.02 uM]
AUC0-Y (ng h/mL), PO ([5]; rat, PO 10.0 mg/kg): 5257 ng·h/mL
F (%) oral bioavailability ([5]; rat, PO 10.0 mg/kg vs IV 1.0 mg/kg): >100%

NC(=O)c1cccc(-c2cccc(OC(=O)NC3CCCCC3)c2)c1 [URB597, reference compound]
IC50 [2]: > 50 µM
solubility [3]: 2.8 µM (≈ 0.948 µg/mL)
half-life at 1 μM [4]: 47 min
Cmax [6]: ~200 ng/mL
